# Laboratory results published in patent US6376497B1, “Antifungal azole derivatives having a fluorinated vinyl group and process for preparing same” (Korea Research Institute of Chemical Technology, priority 1999, dated 2002).
# Assays:
# Assay in all cases: In vitro antifungal activity, microbroth dilution MIC
# Assay type in all cases: cell-based
# [1] = tested on: Candida albicans C1-2; conditions: C. albicans C1-2, RPMI-1640, 35° C., 4 to 48 hours
# Procedure: (§1) In vitro antifungal activities of the inventive antifungal compounds were evaluated using the test strains shown in Table VIII by the following microbroth dilution method which is a modified version of the procedure recommended by National Committee for Clinical Laboratory Standards(see National Committee for Clinical Laboratory Standards, 1992, Reference methods for broth dilution antifungal susceptibility testing of yeasts, Proposed standard M27-P, National Committee for clinical laboratory standards, Villanova, Pa; and National Committee for Clinical Laboratory Standards, 1995, Reference methods for broth dilution antifungal susceptibility testing of yeasts. Tentative standard M27-T, National Committee for clinical laboratory standards, Villanova, Pa).
# (§2) Sabourad Dextrose Agar(Difco) was used as a culture medium, and RPMI-1640 broth(Sigma. Co. w/L-glutamine, wo/NaHCO3)(0.165 M MOPS, pH 7.0), as a dilution medium.
# (§3) Each of the test strains were subcultured in Sabourad Dextrose Agar medium twice and a stain sample was taken from prominent colonies and suspended in sterile physiological saline solution in a cap tube. The turbidity of the suspension was adjusted to that of the Mcfarland 0.5 standard sample(approximately 10^6 CFU/ml). Then the suspension was diluted 500-fold with sterile RPMI-1640 liquid medium to 2×10^3 CFU/ml.
# (§4) Each of the test compounds(the compounds obtained in Examples 1 to 150 and comparative compounds, i.e., fluconazole(FCZ) and itraconazole (ICZ)), was dissolved in DMSO to give a stock solution having a concentration of 4000 μg/ml and the stock solution was successively diluted to obtain test solutions having test compound concentrations of 200, 100, 50, 25, 12.5, 6.25, 3.13, 1.56, 0.78, 0.39, 0.20 and 0.10 μg/ml, respectively.
# (§5) 0.1 ml portion of the test solutions were added to the wells of a sterile 96 well plate. Then, 0.1 ml portion of each of the test strain solutions were added successively to the wells and the plate was incubated at 35° C. for 4 to 48 hours.
# (§6) Minimal inhibitory concentration(MIC) of each compound was defined as the concentration of the test compound where no growth of the strain could be observed.
# [2] = tested on: Trichophyton mentagrophytes A. 9129; conditions: T. mentagrophytes A. 9129, RPMI-1640, 35° C., 4 to 48 hours
# Procedure: as §1, §2, §3, §4, §5, §6
# [3] = tested on: Candida albicans IFO. 1385; conditions: C. albicans IFO. 1385, RPMI-1640, 35° C., 4 to 48 hours
# Procedure: as §1, §2, §3, §4, §5, §6
# [4] = tested on: Aspergillus niger A. 16404; conditions: A. niger A. 16404, RPMI-1640, 35° C., 4 to 48 hours
# Procedure: as §1, §2, §3, §4, §5, §6
# [5] = tested on: Candida krusei K. 11655; conditions: C. krusei K. 11655, RPMI-1640, 35° C., 4 to 48 hours
# Procedure: as §1, §2, §3, §4, §5, §6
# [6] = tested on: Candida pseudotropicalis K. 11658; conditions: C. pseudotropicalis K. 11658, RPMI-1640, 35° C., 4 to 48 hours
# Procedure: as §1, §2, §3, §4, §5, §6
# [7] = tested on: Cryptococcus neoformans A. 34144; conditions: Cry. neoformans A. 34144, RPMI-1640, 35° C., 4 to 48 hours
# Procedure: as §1, §2, §3, §4, §5, §6
# [8] = tested on: Cryptococcus neoformans IFM. 40092; conditions: Cry. neoformans IFM. 40092, RPMI-1640, 35° C., 4 to 48 hours
# Procedure: as §1, §2, §3, §4, §5, §6
# [9] = tested on: Candida albicans A. 10231; conditions: C. albicans A. 10231, RPMI-1640, 35° C., 4 to 48 hours
# Procedure: as §1, §2, §3, §4, §5, §6
# [10] = tested on: Torulopsis glabrata B. 16205; conditions: T. glabrata B. 16205, RPMI-1640, 35° C., 4 to 48 hours
# Procedure: as §1, §2, §3, §4, §5, §6
# [11] = tested on: Candida parapsitosis A. 7330; conditions: C. parapsitosis A. 7330, RPMI-1640, 35° C., 4 to 48 hours
# Procedure: as §1, §2, §3, §4, §5, §6
# [12] = tested on: Cryptococcus neoformans B. 42419; conditions: Cry. neoformans B. 42419, RPMI-1640, 35° C., 4 to 48 hours
# Procedure: as §1, §2, §3, §4, §5, §6
# [13] = tested on: Aspergillus furnigatus B. 19119; conditions: A furnigatus B. 19119, RPMI-1640, 35° C., 4 to 48 hours
# Procedure: as §1, §2, §3, §4, §5, §6
# [14] = tested on: Candida tropicalis A. 13803; conditions: C. tropicalis A. 13803, RPMI-1640, 35° C., 4 to 48 hours
# Procedure: as §1, §2, §3, §4, §5, §6
# [15] = tested on: Trichophyton mentagrophytes B. 32663; conditions: T. mentagrophytes B. 32663, RPMI-1640, 35° C., 4 to 48 hours
# Procedure: as §1, §2, §3, §4, §5, §6
SMILES,Minimal inhibitory concentration (MIC) [1] [µg/mL],Minimal inhibitory concentration (MIC) [2] [µg/mL],Minimal inhibitory concentration (MIC) [3] [µg/mL],Minimal inhibitory concentration (MIC) [4] [µg/mL],Minimal inhibitory concentration (MIC) [5] [µg/mL],Minimal inhibitory concentration (MIC) [6] [µg/mL],Minimal inhibitory concentration (MIC) [7] [µg/mL],Minimal inhibitory concentration (MIC) [8],Minimal inhibitory concentration (MIC) [9] [µg/mL],Minimal inhibitory concentration (MIC) [10] [µg/mL],Minimal inhibitory concentration (MIC) [11] [µg/mL],Minimal inhibitory concentration (MIC) [12] [µg/mL],Minimal inhibitory concentration (MIC) [13] [µg/mL],Minimal inhibitory concentration (MIC) [14] [µg/mL],Minimal inhibitory concentration (MIC) [15] [µg/mL]
Cc1ccc(C(=C(F)OCC2COC(Cn3ccnc3)(c3ccc(F)cc3F)O2)C(F)(F)F)cc1 (mixture of isomers) [Ex. 54],25.0,3.13,0.78,25.0,>100,100,1.56,≦0.10 μg/ml,12.5,6.25,>100,0.78,3.13,100,1.56
CCc1ccc(C(=C(F)OCC2COC(Cn3ccnc3)(c3ccc(F)cc3F)O2)C(F)(F)F)cc1 (mixture of isomers) [Ex. 55],12.5,6.25,0.78,>100,>100,50.0,0.78,≦0.10 μg/ml,12.5,6.25,>100,0.78,100,25.0,3.13
Cc1ccc(C(=C(F)OCC2COC(Cn3ccnc3)(c3ccc(F)cc3F)O2)C(F)(F)F)cc1C (mixture of isomers) [Ex. 56],12.5,6.25,0.78,>100,>100,>100,1.56,0.20 µg/mL,12.5,6.25,>100,0.78,50.0,100,3.13
Cc1cc(C)cc(C(=C(F)OCC2COC(Cn3ccnc3)(c3ccc(F)cc3F)O2)C(F)(F)F)c1 (mixture of isomers) [Ex. 57],12.5,6.25,0.78,>100,>100,>100,1.56,0.20 µg/mL,12.5,6.25,>100,0.78,50.0,100,3.13
FC(OCC1COC(Cn2ccnc2)(c2ccc(F)cc2F)O1)=C(c1cccc(C(F)(F)F)c1)C(F)(F)F (mixture of isomers) [Ex. 58],25.0,12.5,0.78,>100,100,50.0,1.56,0.39 µg/mL,25.0,6.25,>100,1.56,25.0,>100,6.25
FC(OCC1COC(Cn2ccnc2)(c2ccc(F)cc2F)O1)=C(c1ccc(C(F)(F)F)cc1)C(F)(F)F (mixture of isomers) [Ex. 59],25.0,25.0,0.78,>100,50.0,25.0,3.13,0.78 µg/mL,12.5,3.13,>100,3.13,50.0,>100,12.5
COc1cccc(C(=C(F)OCC2COC(Cn3ccnc3)(c3ccc(F)cc3F)O2)C(F)(F)F)c1 (mixture of isomers) [Ex. 60],12.5,6.25,0.78,100,>100,100,1.56,0.20 µg/mL,12.5,6.25,>100,1.56,12.5,100,3.13
COc1ccc(C(=C(F)OCC2COC(Cn3ccnc3)(c3ccc(F)cc3F)O2)C(F)(F)F)cc1 (mixture of isomers) [Ex. 61],12.5,6.25,0.78,100,>100,100,1.56,0.20 µg/mL,12.5,6.25,>100,1.56,12.5,100,3.13
